Measurements taken from patent US7459268B2, “Method for screening agent acting on cell wall” (Daiichi Pharmaceutical Co., Ltd., priority 2001, dated 2008).

How the values were obtained:
[1] = tested on: AY-2 strain (wall-type arming yeast); test: GFP releasing effect of available antifungal agents, wall-type arming yeast; assay type: cell-based, S. cerevisiae; conditions: RPMIB medium protected for osmotic pressure
Procedure: (§1) The cultured yeast cells in the logarithmic growth phase (AY-2 strain or AY-12 strain) were collected, and various agents were allowed to act on the yeast cells. Fluorescence intensity of the culture supernatant was measured by using Cytofluor 2300 Fluorometer (Millipore, excitation=480 nm, emission=530 nm). The fluorescence intensity under treatment with each of various agents was shown in terms of a difference in fluorescence intensity compared with that of a control in which no agent was added.
(§2) In order to ascertain whether or not the aforementioned method can be utilized for a screening of agents with a targeting site other than Kre6p, the GFP releasing effects in the AY-2 strain (wall-type arming yeast) and the AY-12 strain (membrane-type arming yeast) were compared under actions of available antifungal agents. The AY-2 strain cells and the AY-12 strain cells each cultured in a test tube were suspended with a medium (RPMIB) protected for osmotic pressure, and each of the agents was allowed to act on the cells. After the culture, the fluorescence intensity of the supernatant was measured, and a difference from that of a control with no addition of the agent was calculated.

[2] = tested on: AY-12 strain (membrane-type arming yeast); test: GFP releasing effect of available antifungal agents, membrane-type arming yeast; assay type: cell-based, S. cerevisiae; conditions: RPMIB medium protected for osmotic pressure
Procedure: as §1, §2

AY-14 strain [3] = test: GFP release by cell wall synthesis inhibitors; assay type: cell-based, Saccharomyces cerevisiae; conditions: each agent alone
From the text: As agents confirmed to have a yeast cell wall synthesis inhibitory action, tunicamycin (TM, Funakoshi, Tokyo), aculeacin A (AC, Wako Pure Chemical Industries, Osaka) and staurosporine (SP, Boehringer Mannheim, Tokyo) were used. The AY-14 strain was used as a microorganism.
Thus, it is evident that inhibitors for the (1,3)-β-glucan synthesis pathway, N-type saccharide chain synthesis pathway, saccharide chain (glucan) synthesis regulatory pathway and the like can also be screened.

AY-14 strain [4] = test: Molecular weight of released GFP by Western blotting after agent treatment; assay type: cell-based, Saccharomyces cerevisiae; conditions: agent alone
Procedure: Cells at the logarithmic growth phase were collected after inoculation to the liquid medium and culture at 30° C., and suspended in a fresh medium of the same type to prepare a cell suspension for inoculation. The cells were cultured at 30° C. Fluorescence intensity of the culture supernatant was measured (excitation=480 nm, emission=530 nm) by using ARVO sx (Wallac, Tokyo). The GFP releasing effect of the gene-disrupted strains was represented in terms of a difference with that of a non-gene-disrupted strain (AY-10u strain or AY12u strain). After the measurement of fluorescence intensity, the culture supernatants were concentrated by ultrafiltration. The concentrated supernatants were subjected to separation by SDS-PAGE and blotted on a PVDF membrane, and GFP was detected by using commercially available anti-GFP antibodies (rabbit IgG, Santa Cruz Biotechnology) to compare the molecular weights (Western blotting).
As agents confirmed to have a yeast cell wall synthesis inhibitory action, tunicamycin (TM, Funakoshi, Tokyo), aculeacin A (AC, Wako Pure Chemical Industries, Osaka) and staurosporine (SP, Boehringer Mannheim, Tokyo) were used. The AY-14 strain was used as a microorganism. […]

Row | Molecule | GFP releasing effect (fluorescence intensity of culture supernatant, difference from control with no agent) [1] | GFP releasing effect (fluorescence intensity of culture supernatant, difference from control with no agent) [2] | release of GFP (AY-14 strain [3]) | molecular weight of released GFP compared with that in the absence of agent (AY-14 strain [4])
1 | C[C@@H]1[C@H](O)[C@@H](C)/C=C/C=C/C=C/C=C/C=C/C=C/C=C/[C@H](O[C@@H]2O[C@H](C)[C@@H](O)[C@H](N)[C@@H]2O)C[C@@H]2O[C@](O)(C[C@@H](O)C[C@@H](O)[C@H](O)CC[C@@H](O)C[C@@H](O)CC(=O)O[C@H]1C)C[C@H](O)[C@H]2C(=O)O [Amphotericin B] | Slight releasing effect | Slight releasing effect | – | –
2 | OC(Cn1cncn1)(Cn1cncn1)c1ccc(F)cc1F [Fluconazole] | Slight releasing effect | Slight releasing effect | – | –
3 | CN[C@@H]1C[C@H]2O[C@@](C)([C@@H]1OC)n1c3ccccc3c3c4c(c5c6ccccc6n2c5c31)C(=O)NC4 [SP, staurosporine] | – | – | release of GFP was observed | –
4 | CC[C@@H](C(=O)[C@@H](C)[C@@H](O)[C@H](C)[C@@H]1O[C@@H]([C@@H](CC)C(=O)O)CC[C@@H]1C)[C@H]1O[C@]2(C=C[C@@H](O)[C@]3(CC[C@@](C)([C@H]4CC[C@](O)(CC)[C@H](C)O4)O3)O2)[C@H](C)C[C@@H]1C [Salinomycin] | Slight releasing effect | Slight releasing effect | – | –
5 | Aculeacin A | Marked GFP releasing effect | almost no releasing effect | release of GFP was observed | –
6 | Tunicamycin | Marked GFP releasing effect | almost no releasing effect | release of GFP was observed | markedly lowered
